Assay results: ChEMBL document CHEMBL3885861, “Open TG-GATES”

Species: Rattus norvegicus
Test: Open TG-GATES - Regimen: Single
Format: toxicity, organism-based, Sprague-Dawley
Parameters: regimen Single, gender Male, age 6 weeks
Conditions: in vivo, po, 0 mg/kg, route gavage, dose level Control; for APTT / Bas / Eos / Fbg / Hb / Ht / Lym / MCH / MCHC / MCV / Mono / Neu / PT / Plat / RBC / Ret / WBC: tissue Blood; for KIDNEY_L / KIDNEY_R / KIDNEY_TOTAL: tissue Kidney; for LIVER: tissue Liver; for A/G / ALP / ALT / AST / BUN / CRE / Ca / Cl / DBIL / GLC / IP / K / LDH / Na / PL / RALB / TBIL / TC / TG / TP / gamma-GTP: tissue Plasma

## CC(C)(S)[C@@H](N)C(=O)O [PENICILLAMINE]
9 h
  TERMINAL_BW: 199.9 g
  APTT: 16.9 s
  Bas: 0%
  Eos: 0.6%
  Fbg: 300 mg/dL
  Hb: 13.5 g/dL
  Ht: 41.9%
  Lym: 80%
  MCH: 21.1 pg
  MCHC: 32.3%
  MCV: 65.3 fL
  Mono: 2.6%
  Neu: 16.2%
  PT: 14.5 s
  Plat: 126.8 x10_4/uL
  RBC: 641.4 x10_4/ul
  Ret: 9.1%
  WBC: 92.7 x10_2/uL
  KIDNEY_L: 0.9 g
  KIDNEY_R: 0.9 g
  KIDNEY_TOTAL: 1.8 g
  LIVER: 8.1 g
  A/G: 0.9
  ALP: 1372.8 IU/L
  ALT: 40.6 IU/L
  AST: 72 IU/L
  BUN: 8.6 mg/dL
  CRE: 0.1 mg/dL
  Ca: 10.7 mg/dL
  Cl: 106.4 meq/L
  DBIL: 0.006 mg/dL
  GLC: 187.4 mg/dL
  IP: 9.8 mg/dL
  K: 4.2 meq/L
  LDH: 68.4 IU/L
  Na: 143.6 meq/L
  PL: 144 mg/dL
  RALB: 2.6 g/dL
  TBIL: 0.034 mg/dL
  TC: 82 mg/dL
  TG: 55 mg/dL
  TP: 5.4 g/dL
  gamma-GTP: 1.2 IU/L
24 h
  TERMINAL_BW: 214.6 g
  APTT: 16.2 s
  Bas: 0%
  Eos: 1%
  Fbg: 317.2 mg/dL
  Hb: 13.3 g/dL
  Ht: 40.9%
  Lym: 76.8%
  MCH: 21.3 pg
  MCHC: 32.6%
  MCV: 65.2 fL
  Mono: 3.6%
  Neu: 17.6%
  PT: 13.9 s
  Plat: 125.8 x10_4/uL
  RBC: 626.4 x10_4/ul
  Ret: 8.2%
  WBC: 92.6 x10_2/uL
  KIDNEY_L: 0.9 g
  KIDNEY_R: 0.9 g
  KIDNEY_TOTAL: 1.8 g
  LIVER: 9.5 g
  A/G: 0.9
  ALP: 1418.8 IU/L
  ALT: 43 IU/L
  AST: 74.6 IU/L
  BUN: 13.2 mg/dL
  CRE: 0.2 mg/dL
  Ca: 11.1 mg/dL
  Cl: 105.8 meq/L
  DBIL: 0.01 mg/dL
  GLC: 174.8 mg/dL
  IP: 7.2 mg/dL
  K: 4 meq/L
  LDH: 80 IU/L
  Na: 143.4 meq/L
  PL: 160.4 mg/dL
  RALB: 2.6 g/dL
  TBIL: 0.026 mg/dL
  TC: 83 mg/dL
  TG: 115.6 mg/dL
  TP: 5.5 g/dL
  gamma-GTP: 1 IU/L
